The values below come from US8426587B2, “Haloallylamine inhibitors of SSAO/VAP-1 and uses therefor” (Pharmaxis Ltd., priority 2007, dated 2013).

Where a name gives a salt, the structure may show the parent alone. Read-outs that look alike come from different tables or passages of the source. Some results are limits rather than exact numbers.

One assay concerns the target T1, Human SSAO/VAP-1 (Homo sapiens, UniProt Q16853).
T1 sequence (Q16853 1-763): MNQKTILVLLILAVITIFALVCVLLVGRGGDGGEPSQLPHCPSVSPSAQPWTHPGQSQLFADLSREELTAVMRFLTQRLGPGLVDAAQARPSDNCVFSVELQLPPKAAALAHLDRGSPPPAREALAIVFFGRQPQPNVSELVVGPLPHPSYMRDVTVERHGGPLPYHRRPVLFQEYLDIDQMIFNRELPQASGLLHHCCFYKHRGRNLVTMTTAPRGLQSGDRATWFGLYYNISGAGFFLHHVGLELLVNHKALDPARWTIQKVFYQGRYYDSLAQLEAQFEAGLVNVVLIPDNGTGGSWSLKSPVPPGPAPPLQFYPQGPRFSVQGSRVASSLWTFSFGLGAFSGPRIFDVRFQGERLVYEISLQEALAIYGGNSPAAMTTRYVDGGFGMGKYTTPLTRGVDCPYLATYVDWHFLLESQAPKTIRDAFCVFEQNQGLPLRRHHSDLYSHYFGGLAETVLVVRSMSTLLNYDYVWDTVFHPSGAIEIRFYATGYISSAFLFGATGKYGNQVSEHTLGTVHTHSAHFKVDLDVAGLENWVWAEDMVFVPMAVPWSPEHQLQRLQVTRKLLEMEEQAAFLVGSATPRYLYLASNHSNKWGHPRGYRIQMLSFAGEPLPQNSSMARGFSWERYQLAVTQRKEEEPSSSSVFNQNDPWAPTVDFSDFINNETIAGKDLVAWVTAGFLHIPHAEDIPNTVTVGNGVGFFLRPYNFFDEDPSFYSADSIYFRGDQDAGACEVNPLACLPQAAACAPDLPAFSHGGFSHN
Kind of assay: Inhibition of amine oxidase activity of purified human SSAO/VAP-1 (Amplex Red). It counts as biochemical. The note with it: purified human SSAO, 300 μM benzylamine. As for the experimental part:
To measure the SSAO activity, adipocyte homogenate (0.5 mg/mL) or adipocytes (adhering cells) containing 0.5 mM pargyline, or purified human SSAO was incubated in 0.1 M sodium phosphate buffer pH 7.4 with varying concentrations of test compounds for 30 min at 37° C. The homogenate was then incubated at 37° C. with 60 μM Amplex® Red, 0.75 U/mL HRP and 40 μM benzylamine (mouse SSAO) or 300 μM benzylamine (human SSAO) and the formation of resorufin was measured (excitation range 530-560 nm and emission at 590 nm) every 10 min in either a Tecan Infinite 200 or a BMG plate reader. The IC50 values were estimated using Graphpad Prism software. The IC50 is an estimation of the concentration of the test compound to inhibit the amine oxidase activity of SSAO/VAP-1 by 50%. The IC50 values of certain invention compounds are included in Table 1.

In another assay the target is T2, SSAO/VAP-1 (Mus musculus, UniProt O70423).
T2 construct: the genital fat was excised and frozen; The tissue was homogenized; from tissue; host or cells: genital fat of BALB/C mice
T2 sequence (O70423 1-765): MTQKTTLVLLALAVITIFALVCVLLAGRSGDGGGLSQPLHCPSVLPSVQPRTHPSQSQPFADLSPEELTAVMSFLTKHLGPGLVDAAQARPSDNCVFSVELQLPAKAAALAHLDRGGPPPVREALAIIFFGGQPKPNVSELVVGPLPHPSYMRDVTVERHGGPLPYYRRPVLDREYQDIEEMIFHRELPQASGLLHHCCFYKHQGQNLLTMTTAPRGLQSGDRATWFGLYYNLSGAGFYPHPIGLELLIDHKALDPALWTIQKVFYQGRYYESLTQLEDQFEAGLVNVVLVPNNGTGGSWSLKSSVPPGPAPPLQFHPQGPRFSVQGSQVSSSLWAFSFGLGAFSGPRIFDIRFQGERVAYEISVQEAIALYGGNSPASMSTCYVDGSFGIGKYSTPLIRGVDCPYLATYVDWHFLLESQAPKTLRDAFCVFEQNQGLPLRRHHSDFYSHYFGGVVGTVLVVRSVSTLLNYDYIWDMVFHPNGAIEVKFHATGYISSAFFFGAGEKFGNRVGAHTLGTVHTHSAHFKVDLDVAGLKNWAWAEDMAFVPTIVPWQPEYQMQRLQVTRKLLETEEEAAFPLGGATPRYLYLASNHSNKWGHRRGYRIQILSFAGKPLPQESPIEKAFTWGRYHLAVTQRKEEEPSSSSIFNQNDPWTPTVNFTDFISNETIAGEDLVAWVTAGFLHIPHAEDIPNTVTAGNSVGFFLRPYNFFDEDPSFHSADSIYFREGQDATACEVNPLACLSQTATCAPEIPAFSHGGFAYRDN
Nature of the assay: In vivo inhibition of SSAO/VAP-1 activity in mouse genital fat. More on the design: species or system BALB/C mice. The note with it: ip. As for the experimental part:
In vivo inhibition was assessed in mouse genital fat, a tissue with high SSAO/VAP-1 expression. 10 BALB/C mice (5 males and 5 females) were administered 0 mg/kg, 10 mg/kg, 30 mg/kg or 100 mg/kg SSAO/VAP-1 inhibitor by intraperitoneal injection. Two hours after administration the mice were sacrificed and the genital fat was excised and frozen. The tissue was homogenized in 0.01 M sodium phosphate buffer pH 7.4 (10 mL/g) and used to measure SSAO activity using Amplex® Red. ED50 was estimated Using Graphpad Prism software.

Assay [1] concerns LPS-induced pulmonary inflammation. The note with it: cited from earlier work.
Assay [2] concerns experimental autoimmune encephalomyelitis. Particulars: reported in US 2006/0025438 A1; cited from earlier work.
The mark [3] stands for this setting: female BALB/C mice, intraperitoneal, genital fat SSAO activity two hours after administration, read-out: Female Mice ED50 [ip].
The mark [4] stands for this setting: male BALB/C mice, intraperitoneal, genital fat SSAO activity two hours after administration, read-out: Male Mice ED50 [ip].

The term IC50 denotes the concentration that gives 50% inhibition. Higher therefore signals weaker potency in that assay. As a reminder, the ED50 is the dose at which the effect has come halfway, by size or by number of responders. Regarding `CS(=O)(=O)c1ccc(OC/C(F)=C\CN)cc1.Cl` [(E)-3-Fluoro-4-(4-(methylsulfonyl)phenoxy)but-2-en-1-amine hydrochloride], the IC50 at Human SSAO/VAP-1 (30 min at 37° C. preincubation) is below 1 µM. Further, the results for the ED50 at SSAO/VAP-1 (setting [3]) and at SSAO/VAP-1 (setting [4]) were below 300 mg/kg and below 100 mg/kg, respectively.

As to `NC/C=C(/F)COc1ccc(C(=O)NC2CCCCC2)cc1` [(E)-4-(4-amino-2-fluorobut-2-enyloxy)-N-cyclohexylbenzamide hydrochloride], the IC50 against Human SSAO/VAP-1 (30 min at 37° C. preincubation) was below 1 µM. In addition, the ED50 at SSAO/VAP-1 (read-out: Female Mice ED50 [ip]) and at SSAO/VAP-1 (read-out: Male Mice ED50 [ip]) was below 50 mg/kg throughout.

On to `C[C@H](NS(=O)(=O)c1ccc(OC/C(F)=C\CN)cc1)c1ccccc1.Cl` [(S,E)-4-(4-Amino-2-fluorobut-2-enyloxy)-N-(1-phenylethyl)benzenesulfonamide], for which the IC50 on Human SSAO/VAP-1 (30 min at 37° C. preincubation) was below 1 µM. Also, the ED50 on SSAO/VAP-1 (setting [3]) and on SSAO/VAP-1 (setting [4]) was below 50 mg/kg each time.

`NC/C(=C/F)CCc1ccc(F)cc1` [Mofegiline, reference compound] yielded a 50% inhibitory concentration (IC50) against Human SSAO/VAP-1 of 0.021 µM. Further, the ED50 on SSAO/VAP-1 (setting [3]) and on SSAO/VAP-1 (setting [4]) was below 1 mg/kg each time. The BAL cell counts entry in assay [1] (mouse overexpressing human SSAO/VAP-1, LPS) is on record as “significantly reduces”. For the same compound, the “LPS-induced increase in TNF-a” value in assay [1] (mouse overexpressing human SSAO/VAP-1) is listed as “significantly attentuates”. The “Inhibition of experimental autoimmune encephalomyelitis” value in assay [2] is “inhibit experimental autoimmune encephalomyelitis”.

Compound `Cc1nc2cc(OC/C(F)=C\CN)ccc2s1.Cl` [(E)-3-Fluoro-4-(2-methylbenzo[d]thiazol-5-yloxy)but-2-en-1-amine hydrochloride] displayed an IC50 against Human SSAO/VAP-1 (30 min at 37° C. preincubation) below 1 µM. For the same compound, the results for the ED50 at SSAO/VAP-1 (setting [3]) and at SSAO/VAP-1 (setting [4]) were below 100 mg/kg and below 50 mg/kg, respectively.
